Experimental data as given in ChEMBL document CHEMBL4613287, “Glycomimetic Based Approach toward Selective Carbonic Anhydrase Inhibitors” (ACS Med Chem Lett, 2020).

Key:
Carbonic anhydrase 1 = Carbonic anhydrase 1 (Homo sapiens, UniProt P00915); test: Inhibition of recombinant human carbonic anhydrase 1 preincubated with enzyme for 15 mins by phenol red dye based stopped flow CO2 hydration assay
Carbonic anhydrase 7 = Carbonic anhydrase 7 (Homo sapiens, UniProt P43166); test: Inhibition of recombinant human carbonic anhydrase 7 preincubated with enzyme for 15 mins by phenol red dye based stopped flow CO2 hydration assay
Carbonic anhydrase 7, sequence (P43166 whole entry): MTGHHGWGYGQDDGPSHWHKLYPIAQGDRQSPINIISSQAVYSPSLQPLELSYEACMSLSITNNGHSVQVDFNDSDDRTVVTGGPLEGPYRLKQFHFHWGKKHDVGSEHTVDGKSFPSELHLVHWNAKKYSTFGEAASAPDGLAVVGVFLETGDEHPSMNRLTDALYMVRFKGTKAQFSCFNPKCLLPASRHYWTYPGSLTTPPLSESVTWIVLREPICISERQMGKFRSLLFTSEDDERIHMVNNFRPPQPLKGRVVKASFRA

Carbonic anhydrase 12 = Carbonic anhydrase 12 (Homo sapiens, UniProt O43570); test: Inhibition of recombinant human carbonic anhydrase 12 preincubated with enzyme for 15 mins by phenol red dye based stopped flow CO2 hydration assay
Carbonic anhydrase 12, sequence (O43570 whole entry): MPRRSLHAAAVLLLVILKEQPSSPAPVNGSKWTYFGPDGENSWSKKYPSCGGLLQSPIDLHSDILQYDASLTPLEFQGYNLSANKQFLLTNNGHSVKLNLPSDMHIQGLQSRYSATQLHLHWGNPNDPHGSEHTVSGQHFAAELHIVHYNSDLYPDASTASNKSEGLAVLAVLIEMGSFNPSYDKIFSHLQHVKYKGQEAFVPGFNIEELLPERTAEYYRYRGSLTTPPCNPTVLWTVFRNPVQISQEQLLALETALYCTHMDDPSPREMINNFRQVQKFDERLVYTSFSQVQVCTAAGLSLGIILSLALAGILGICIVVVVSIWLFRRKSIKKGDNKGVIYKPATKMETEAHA

Carbonic anhydrase 9 = Carbonic anhydrase 9 (Homo sapiens, UniProt Q16790); test: Inhibition of recombinant human carbonic anhydrase 9 preincubated with enzyme for 15 mins by phenol red dye based stopped flow CO2 hydration assay
Carbonic anhydrase 2 = Carbonic anhydrase 2 (Homo sapiens, UniProt P00918); test: Inhibition of recombinant human carbonic anhydrase 2 preincubated with enzyme for 15 mins by phenol red dye based stopped flow CO2 hydration assay

Carbonic anhydrase 1, sequence (P00915 whole entry): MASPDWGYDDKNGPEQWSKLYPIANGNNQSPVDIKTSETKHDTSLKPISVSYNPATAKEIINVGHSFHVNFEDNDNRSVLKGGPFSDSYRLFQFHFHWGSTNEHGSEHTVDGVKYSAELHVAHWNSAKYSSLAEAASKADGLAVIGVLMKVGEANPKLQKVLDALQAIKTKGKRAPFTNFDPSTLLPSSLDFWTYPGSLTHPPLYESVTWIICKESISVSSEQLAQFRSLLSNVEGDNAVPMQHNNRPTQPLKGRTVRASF

| Compound | Ki (Carbonic anhydrase 1) [µM] | Ki (Carbonic anhydrase 7) [µM] | Ki (Carbonic anhydrase 12) [µM] | Ki (Carbonic anhydrase 9) [µM] | Ki (Carbonic anhydrase 2) [µM] |
| --- | --- | --- | --- | --- | --- |
| CC1(C)O[C@H]2[C@H](O)CN(CCCCCCn3cc(CNc4ccc(S(N)(=O)=O)cc4)nn3)C[C@H]2O1 | 2.88 | 0.0074 | 0.541 | 2.98 | 0.0803 |
| CC1(C)O[C@H]2[C@H](O)[C@H]([C@H]3[C@H](O)[C@H]4OC[C@@H](O4)[C@H]3O)N(CCCCCCn3cc(CNc4ccc(S(N)(=O)=O)cc4)nn3)C[C@H]2O1 | 0.956 | 0.0312 | 0.77 | 0.0359 | 0.801 |
